Data from patent US20070167466A1, “"Pyrazolo [4,3-d]pyrimidines, processes for their preparation and methods of use"” (priority 2003, published 2007).
Where a name gives a salt, the structure may show the parent alone. Read-outs that look alike come from different tables or passages of the source.

What was measured:
[1] = tested on: K562 (human chronic myeloblastic leukemia); assay: In vitro cytotoxic activity, Calcein AM, three days; format: cell-based; conditions: read-out: K-562 IC50
Protocol: (§1) We have been using the following cell lines: HELA (human cervical carcinoma), MCF7 (human breast adenocarcinoma), NIH 3T3 (mouse fibroblasts), HOS (human osteogenic sarcoma), HL 60 (human promyelocytic leukemia), G 361 (human malignant melanoma), K562 (human chronic myeloblastic leukemia), CEM (human lymphoblastoid leukaemia). Tested drugs were added to the cell cultures in six different concentration and kept at 37° C. and 5% CO2 for three days. All cell lines were grown in DMBM medium (Gibco BRL) supplemented with 10% (v/v) fetal bovine serum and L-glutamine and maintained at 37° C. in a humidified atmosphere with 5% CO2. 10^4 cells were seeded into each well of 96 well plate, allowed to stabilize for at least 2 h and then tested compounds were added at various concentrations ranging from 200 to 0.2 μM in triplicates. Three days after drug addition Calcein AM solution (Molecular Probes) was added and let to enter the cells for 1 hour. Fluorescence of viable cells was quantified employing Fluoroskan Ascent (Microsystems).

[2] = tested on: MCF7 (human breast adenocarcinoma); assay: as above; format: cell-based
Protocol: as §1

[3] = tested on: Cytokinin-dependent tobacco callus Nicotiana tabacum L. cv. Wisconsins 38; assay: Tobacco callus bioassay for cytotoxicity (herbicidal activity); format: cell-based; conditions: four weeks
Protocol: The compounds to be tested were dissolved in dimethylsulfoxide (DMSO) and the solution brought up to 10^−3 M with distilled water. […] Cytokinin-dependent tobacco callus Nicotiana tabacum L. cv. […] Subcultivation was carried out every three weeks. Fourteen days before the bioassay, the callus tissue was transferred to the media without 6-benzylaminopurine. Compounds were tested with two different concentrations of 6-benzylaminopurine (10^−5 M and 10^−6 M). Inhibitory growth activity was determined from the increase in fresh callus weight after four weeks of cultivation. Five replicates were prepared for each concentration tested and the entire test was repeated at least twice.

[4] = target: T1, CDK1 (p34^cdc2, cyclin B) (Homo sapiens, UniProt P06493); assay: CDK inhibition assay, p34^cdc2 kinase, histone H1 phosphorylation; format: biochemical; conditions: 15 μM ATP, histone H1, 30° C.
T1 construct: made in house; host or cells: Sf9 insect cells (baculovirus co-infection)
Protocol: The controls contain suitable dilutions of DMSO.
2-glycerolphosphate, 1 mM NaF, 1 mM DTT

[5] = target: CDK2 (p33^cdk2, cyclin E) (Homo sapiens, UniProt P24941); assay: CDK inhibition assay, p33^cdk2 kinase, histone H1 phosphorylation;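 further: Baculovirus-expressed kinase/cyclin complex from Sf9 cell extract, 10 min at 30 °C, phosphoproteins separated by SDS gel and quantified by image analysis, activity relative to DMSO control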
Protocol: Cyclin-dependent kinases (p34^cdc2, p33^cdk2) and cyclins (cyclin B, E) are produced in Sf9 insect cells coinfected with appropriate baculoviral constructs. The cells are harvested 68-72 hrs post infection in lysis buffer for 30 min on ice and the soluble fraction is recovered by centrifugation at 14.000 g for 10 min. The protein extract is stored at −80° C.
Lysis buffer: 50mM Tris pH 7.4, 150mM NaCl, 5 mM EDTA, 20 mM NaF, 1% Tween, 1 mM DTT, 0.1 mM PMSF, leupeptine, aprotonine.
To carry out experiments on kinetics under linear conditions, the final point test system for kinase activity measurement is used. The kinase is added to reaction mixture in such a way as to obtain linear activity with respect to the concentration of enzyme and with respect to time.
Kinase activity is determined at 30° C. in the kinase buffer.
Tested compounds are usually dissolved to 100 mM solutions in DMSO, final concentration of DMSO in reaction mixture never exceeds 1%. The controls contain suitable dilutions of DMSO.
After 10 min, addition 3×SDS sample buffer stops the incubations. Phosphorylated proteins are separated electrophoretically using 10% SDS polyacrylamide gel. The measurement of kinase activity is done using digital image analysis.
The kinase activity is expressed as a percentage of maximum activity, the apparent inhibition constants are determined by graphic analysis.
Kinase buffer: 50 mM Hepes pH 7.4, 10 mM MgCl2, 5 mM EGTA, 10 mM

[6] = Nicotiana tabacum, 672 h, read-out: IC50, growth of tobacco callus, 10^−5 M BAP, 10^−5 M 6-benzylaminopurine
[7] = Nicotiana tabacum, 672 h, 10^−6 M 6-benzylaminopurine, read-out: IC50, growth of tobacco callus, 10^−6 M BAP

T1 sequence (P06493 whole entry, species assumed): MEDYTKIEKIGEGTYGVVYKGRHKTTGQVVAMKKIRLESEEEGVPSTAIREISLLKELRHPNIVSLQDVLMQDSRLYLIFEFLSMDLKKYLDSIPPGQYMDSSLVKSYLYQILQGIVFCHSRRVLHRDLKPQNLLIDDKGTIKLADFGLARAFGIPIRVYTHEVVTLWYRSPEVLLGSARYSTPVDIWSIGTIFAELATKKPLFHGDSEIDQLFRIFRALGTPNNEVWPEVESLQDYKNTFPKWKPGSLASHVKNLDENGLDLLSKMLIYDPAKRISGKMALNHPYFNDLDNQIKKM
T1 sequence (P14635 whole entry partner, species assumed): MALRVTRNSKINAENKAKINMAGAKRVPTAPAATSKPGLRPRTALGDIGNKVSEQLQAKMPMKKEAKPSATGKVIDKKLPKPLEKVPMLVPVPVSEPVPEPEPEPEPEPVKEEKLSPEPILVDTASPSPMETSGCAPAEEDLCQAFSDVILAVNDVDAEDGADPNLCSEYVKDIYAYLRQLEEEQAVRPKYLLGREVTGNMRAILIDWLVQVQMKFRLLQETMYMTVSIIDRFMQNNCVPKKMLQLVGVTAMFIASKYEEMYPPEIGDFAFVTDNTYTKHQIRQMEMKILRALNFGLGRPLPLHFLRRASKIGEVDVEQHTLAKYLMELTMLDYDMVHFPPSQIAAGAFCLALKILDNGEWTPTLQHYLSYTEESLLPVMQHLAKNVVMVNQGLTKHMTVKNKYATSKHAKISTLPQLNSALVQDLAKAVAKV

SMILES | IC50 [4] | IC50 [5] | melting point | IC50 ([5]; read-out: CDK2 IC50, 15 μM ATP, histone H1, 30° C.) | IC50 [1] | IC50 [2] | IC50 ([3]; 10^−6 M 6-benzylaminopurine, read-out: IC50, growth of tobacco callus, 10^−6 M BAP) | IC50 ([3]; read-out: IC50, growth of tobacco callus, 10^−5 M BAP, 10^−5 M 6-benzylaminopurine) | IC50 ([1]; Homo sapiens, K562, 72 h) | IC50 ([2]; Homo sapiens, MCF7, 72 h) | IC50 [3, 6] | IC50 [3, 7]
CC(C)c1n[nH]c2c(NC3CCC3)ncnc12 [cyclobutylamino / isopropyl] | – | – | – | – | 60 µM | 45 µM | 4.3 µM | 12.1 µM | – | – | – | –
Cc1ccccc1CNc1ncnc2c(C(C)C)n[nH]c12 [2-methylbenzylamino / isopropyl] | 2 µM | 1.4 µM | – | – | – | – | – | – | 75 µM | 63 µM | 14 µM | 4.2 µM
CC(C)=CCNc1ncnc2c(C(C)C)n[nH]c12 [isopentenylamino / isopropyl, 7-(isopent-2-en-(1-yl)amino)-3-isopropylpyrazolo[4,3-d]pyrimidine] | 4.5 µM | 1.3 µM | – | – | – | – | – | – | > 167 µM | > 167 µM | 15.3 µM | 1.7 µM
COc1ccc(CNc2ncnc3c(C(C)C)n[nH]c23)cc1 [4-methoxybenzylamino / isopropyl, 7-(4-methoxybenzyl)amino-3-isopropylpyrazolo[4,3d]pyrimidine] | 2.3 µM | 1 µM | 143 to 144 °C | – | – | – | – | – | 41 µM | 28 µM | – | –
CCCCCNc1ncnc2c(C(C)C)n[nH]c12 [pentylamino / isopropyl, 7-pentylamino-3-isopropylpyrazolo[4,3-d]pyrimidine] | 1.7 µM | 1.4 µM | 73 to 75 °C | – | – | – | – | – | 61 µM | 32 µM | – | –
CC(C)c1n[nH]c2c(NCc3ccco3)ncnc12 [furfurylamino / isopropyl, 7-furfurylamino-3-isopropylpyrazolo[4,3-d]pyrimidine] | 1.8 µM | 0.8 µM | 179 to 182 °C | – | – | – | – | – | > 167 µM | 130 µM | 25 µM | 9.4 µM
CC(C)c1n[nH]c2c(NCc3ccc(Cl)cc3)ncnc12 [4-chlorobenzylamino / isopropyl] | 1.8 µM | 1.1 µM | – | – | – | – | – | – | – | – | 12.1 µM | 4.7 µM
CC(C)c1n[nH]c2c(Nc3ccc(Cl)cc3)ncnc12 [4-chloroanilino / isopropyl] | 2.1 µM | 3.1 µM | – | – | – | – | – | – | 4 µM | 3 µM | – | –
CC(C)c1n[nH]c2c(NC3CCC(N)CC3)ncnc12 (centres unmarked) [(4-aminocyclohexyl)amino / isopropyl] | 80 µM | – | – | 70 µM | 107 µM | 68 µM | – | – | – | – | – | –
CC(C)c1n[nH]c2c(Nc3cccc(Cl)c3)ncnc12 (as salt: salt) [3-chloroanilino / isopropyl, 7-(3-chloroanilino)-3-isopropylpyrazolo[4,3-d]pyrimidine] | – | – | 213 to 216 °C | – | – | – | – | – | – | – | – | –
CC(C)c1n[nH]c2c(Nc3ccc(N)c(Cl)c3)ncnc12 [3-chloro-4-aminoanilino / isopropyl] | 2.9 µM | 3 µM | – | – | – | – | – | – | 13 µM | 12 µM | – | –
CC(C)c1n[nH]c2c(Nc3ccc(Cl)c(N)c3)ncnc12 [3-amino-4-chloroanilino / isopropyl] | 2.9 µM | 3 µM | – | – | – | – | – | – | 0.3 µM | 0.2 µM | – | –
CC(C)c1n[nH]c2c(NC3CCCCC3)ncnc12 [cyclohexylamino / isopropyl] | 80 µM | 95 µM | – | – | – | – | – | – | 98 µM | 95 µM | 46 µM | 9.4 µM
CC(C)c1n[nH]c2c(Nc3ccc(Br)cc3)ncnc12 [4-bromoanilino / isopropyl] | 1.7 µM | 1.9 µM | – | – | – | – | – | – | 7 µM | 5 µM | – | –
C=CCNc1ncnc2c(C(C)C)n[nH]c12 [allylamino / isopropyl] | 16 µM | 14 µM | – | – | – | – | – | – | 77 µM | 64 µM | 18 µM | 3.7 µM
Cc1n[nH]c2c(NC3CCC3)ncnc12 [cyclobutylamino / methyl] | 35 µM | 28 µM | – | – | – | – | – | – | 101 µM | 89 µM | – | –
CCc1n[nH]c2c(NC3CCC3)ncnc12 [cyclobutylamino / ethyl] | 27 µM | 25 µM | – | – | – | – | – | – | 94 µM | 82 µM | – | –
Cn1cnc2c(NCc3ccccc3)nc(NCCO)nc21 [Olomoucine, reference compound] | – | – | – | – | – | – | – | – | > 167 µM | 132 µM | > 50 µM | > 50 µM
CC(C)c1n[nH]c2c(NC3CCCC3)ncnc12 [cyclopentylamino / isopropyl] | 18 µM | 20 µM | – | – | – | – | – | – | – | – | 15.6 µM | 8.4 µM

Continued, in another order:

IC50 [4] | IC50 [5] | melting point | IC50 ([5]; read-out: CDK2 IC50, 15 μM ATP, histone H1, 30° C.) | SMILES | IC50 [1] | IC50 [2] | IC50 ([3]; 10^−6 M 6-benzylaminopurine, read-out: IC50, growth of tobacco callus, 10^−6 M BAP) | IC50 ([3]; read-out: IC50, growth of tobacco callus, 10^−5 M BAP, 10^−5 M 6-benzylaminopurine) | IC50 ([1]; Homo sapiens, K562, 72 h) | IC50 ([2]; Homo sapiens, MCF7, 72 h) | IC50 [3, 6] | IC50 [3, 7]
4.4 µM | 5.2 µM | – | – | CC(C)c1n[nH]c2c(Nc3ccccc3)ncnc12 [anilino / isopropyl] | – | – | – | – | 21 µM | 15 µM | 41 µM | 5.3 µM
2.1 µM | 2 µM | – | – | CC(C)c1n[nH]c2c(NCc3ccccc3Cl)ncnc12 [2-chlorobenzylamino / isopropyl] | – | – | – | – | 21 µM | 15 µM | 31 µM | 4.6 µM
2.2 µM | 3.1 µM | – | – | Cc1cccc(CNc2ncnc3c(C(C)C)n[nH]c23)c1 [3-methylbenzylamino / isopropyl] | – | – | – | – | 94 µM | 76 µM | 26 µM | 8.5 µM
6 µM | 3.2 µM | – | – | CCc1n[nH]c2c(NCc3cccc(O)c3)ncnc12 [3-hydroxybenzylamino / ethyl] | – | – | – | – | 132 µM | 111 µM | – | –
0.4 µM | 0.27 µM | – | – | CC(C)c1n[nH]c2c(NCc3ccccc3O)ncnc12 [2-hydroxybenzylamino / isopropyl, 7-(2-hydroxybenzyl)amino-3-isopropylpyrazolo[4,3-d]pyrimidine] | – | – | – | – | 50 µM | 63 µM | – | –
6.2 µM | 7 µM | – | – | CCc1n[nH]c2c(NCc3ccccc3O)ncnc12 [2-hydroxybenzylamino / ethyl] | – | – | – | – | 51 µM | 63 µM | – | –
24 µM | 18 µM | – | – | CCc1n[nH]c2c(Nc3cccc(Cl)c3)ncnc12 [3-chloroanilino / ethyl] | – | – | – | – | 28 µM | 19 µM | – | –
8.8 µM | 9.4 µM | – | – | CC(C)c1n[nH]c2c(NCc3cccc(Cl)c3)ncnc12 [3-chlorobenzylamino / isopropyl] | – | – | – | – | 26 µM | 24 µM | 20 µM | 1.7 µM
5.5 µM | 7.2 µM | – | – | Cc1n[nH]c2c(NCc3cccc(O)c3)ncnc12 [3-hydroxybenzylamino / methyl] | – | – | – | – | 143 µM | 119 µM | – | –
12 µM | 11 µM | – | – | CCc1n[nH]c2c(NCc3ccccc3)ncnc12 [benzylamino / ethyl] | – | – | – | – | 81 µM | 62 µM | – | –
